# Experiments:
# Assay type in all cases: cell-based, human
# primary melanocytes = experiment: Yield of primary melanocytes from dissociated epidermis cultured in TIVA ± Y-27632
# Procedure: Foreskin tissues were trimmed to remove the fat layer and then incubated with Dispase solution (2.5 mg/ml in PBS, overnight at 4° C.). On the second day, the epidermis was peeled from the dermis with fine forceps and chopped into small pieces, incubated with 0.05% trypsin for 15-30 min, neutralized with 10% FBS in DMEM, filtered ([…], Millipore), centrifuged, and rinsed with PBS. In the conventional method of melanocyte isolation, the epidermal cells were plated into culture vessels with melanocyte culture medium TIVA (Ham's F12, Mediatech, Inc., Herndon, Va., USA; 10% fetal bovine serum; 1× penicillin/streptomycin/glutamine, Invitrogen, Carlsbad, Calif., USA; 1×10^−4 M 3-isobutyl-1-methyl xanthine (IBMX), Sigma, St Louis, Mo., USA; 50 ng/ml 12-O-tetradecanoyl phorbol-13-acetate (TPA), Sigma; 2 μM Na3VO4; 1×10^−3 M N^6,2′-O-dibutyryladenosine 3′,5′-cyclic monophosphate (dbcAMP), Sigma) (Halaban et al., 2000; Yokoyama et al., 2008). The culture medium was changed once every 2 days until confluency was reached. For the new method, the isolated melanocytes were seeded with TIVA medium plus 10 μM Y-27632 (Y0503, Sigma) for two days, then the culture medium was replaced with standard TIVA without Y-27632 every 2 days, as in the conventional method. […] For isolation of keratinocytes, the dissociated epidermal cells were seeded with keratinocyte culture medium (K-SFM, Gibco/Thermo Fisher Scientific, Waltham, Mass., USA) into culture dishes pretreated with coating matrix containing type-I collagen (Gibco, R-011-K) and the medium was changed every 2 days. In order to understand the role of Y-27632 in promoting melanocyte growth, different media were used in different experiments depending on the experimental needs; information about the medium and protocol used for each experiment is listed in the following table.
# To test whether Y-27632 can enhance the yield of primary melanocytes, dissociated cells isolated from epidermis were plated with melanocyte culture medium (TWA) containing 10 μM Y-27632 and incubated for 48 h, and then the medium was replaced with TIVA without Y-27632. […] The differences were significant at 5 or more days after plating, and at 16 days, about 5 times more melanocytes were recovered from Y-27632-treated cultures compared with untreated cultures. We further tested whether longer treatment with Y-27632 had the same effect.
# passage 3 melanocytes [1] = experiment: Melanocyte proliferation in co-culture with keratinocytes in TIVA medium (cell counting); conditions: 24 h and 48 h
# Procedure: (§1) FIGS. 1A-C. Keratinocytes that survive culture in TWA medium with Y-27632 can enhance melanocyte growth through a paracrine signaling pathway. A. Equal numbers of pure passage 3 melanocytes were plated with TWA medium in 4 groups with addition(s) as indicated: 1) Y-27632 (10 μM) alone (Y in graph), 2) passage 3 keratinocytes alone (K), 3) keratinocytes and Y-27632 (10 μM) (K+Y), and 4) no addition (negative control, con). Relative fold changes in melanocyte proliferation compared to the negative control were determined by counting the number of melanocytes at 24 h and 48 h after plating. B. Conditioned TWA media were obtained from the 4 groups of passage 3 melanocyte cultures in (A) at 48 h after plating. Then, equal numbers of passage 3 melanocytes were plated in 4 groups, each with one of the conditioned medium. Relative fold changes in melanocyte proliferation compared to the negative control were determined by counting the number of melanocytes at 24 h and 48 h after plating. C. […]
# (§2) Therefore, we hypothesized that the surviving keratinocytes in TIVA medium with Y-27632 can promote proliferation of melanocytes by secreting growth factors into the medium. […] To identify potential growth factors, quantitative RT-PCR analysis was performed for expression of six factors that have been reported to be secreted by cultured human keratinocytes and could enhance melanocyte growth.
# passage 3 melanocytes [2] = experiment: Melanocyte proliferation in conditioned TIVA media (cell counting)
# Procedure: as §1, §2
# SCF (KITLG) = experiment: qRT-PCR analysis of SCF mRNA expression in keratinocytes
# Procedure: as §1, with “B. Conditioned TWA media were obtained from the 4 groups of passage 3 melanocyte cultures in (A) at 48 h after plating. Then, equal numbers of passage 3 melanocytes were plated in 4 groups, each with one of the conditioned medium.” left out, “plating.” for “plating. C.”
# FIGS. 2A-E. Y-27632 can increase SCF expression in keratinocytes, which can promote melanocyte growth. […] Relative fold changes in melanocyte proliferation compared to the control medium were determined by counting the numbers of melanocytes. *p<0.05, **p<0.01 compared with the control; #p<0.05 comparing the SCF-treated group with the IgG-treated group.
# Total RNA was extracted from cells using a QIAGEN RNeasy Plus Mini Kit (QIAGEN, Hilden, Germany) according to manufacturer's instructions. […] Data were acquired and analyzed with 7500 Fast System SDS software (Life Tedmologies, Grand Island, N.Y., USA). […]
# SCF = experiment: Western blot analysis of SCF protein expression in keratinocytes; conditions: K-SFM with or without Y-27632 for 24, 48 or 72 h
# Procedure: FIGS. 2A-E. Y-27632 can increase SCF expression in keratinocytes, which can promote melanocyte growth. A. RT-PCR analysis of SCF mRNA expression in passage 3 keratinocytes grown in K-SFM with (Y) or without (con) Y-27632 for the indicated times. **p<0.01 comparing Y-treated with the corresponding control group. B. Western blot analysis of SCF protein expression with or without Y-27632 for 24, 48 or 72 h. C. RT-PCR analysis of SCF mRNA expression in keratinocytes grown in K-SFM with increasing concentrations of Y-27632 for 48 h. **p<0.01, ***p<0.005 comparing Y-27632-treated with untreated cells (0). D. gRT-PCR analysis of SCF mRNA expression in keratinocytes grown in K-SFM, 72 h after transfection of ROCK1 and ROCK2 siRNAs individually and together. **p<0.01 when compared with the control cells transfected with scramble siRNA (siCtrl). […] Relative fold changes in melanocyte proliferation compared to the control medium were determined by counting the numbers of melanocytes. *p<0.05, **p<0.01 compared with the control; #p<0.05 comparing the SCF-treated group with the IgG-treated group.
# To test whether Y-27632 can enhance expression of SCF in keratinocytes, we cultured keratinocytes in the keratinocyte culture condition (K-SFM) with or without Y-27632 and measured SCF expression.
# passage 3 melanocytes [3] = experiment: Melanocyte proliferation in conditioned K-SFM media from keratinocytes ± Y-27632, ± SCF antibody; conditions: K-SFM conditioned 48 h by keratinocytes with Y-27632; melanocytes cultured 48 h
# Procedure: FIGS. 2A-E. Y-27632 can increase SCF expression in keratinocytes, which can promote melanocyte growth. A. RT-PCR analysis of SCF mRNA expression in passage 3 keratinocytes grown in K-SFM with (Y) or without (con) Y-27632 for the indicated times. **p<0.01 comparing Y-treated with the corresponding control group. B. Western blot analysis of SCF protein expression with or without Y-27632 for 24, 48 or 72 h. C. RT-PCR analysis of SCF mRNA expression in keratinocytes grown in K-SFM with increasing concentrations of Y-27632 for 48 h. **p<0.01, ***p<0.005 comparing Y-27632-treated with untreated cells (0). D. gRT-PCR analysis of SCF mRNA expression in keratinocytes grown in K-SFM, 72 h after transfection of ROCK1 and ROCK2 siRNAs individually and together. **p<0.01 when compared with the control cells transfected with scramble siRNA (siCtrl). E. Passage 3 keratinocytes were cultured in K-SFM with or without 1′-27632 for 48 h, and then the conditioned media were collected. […] Relative fold changes in melanocyte proliferation compared to the control medium were determined by counting the numbers of melanocytes. *p<0.05, **p<0.01 compared with the control; #p<0.05 comparing the SCF-treated group with the IgG-treated group. […]
# melanocytes = experiment: Transwell migration assay of melanocytes
# Procedure: A. Representative images of migrated melanocytes (dark grey) in the transwell migration assay with different conditions as indicated. […] C. The transwell migration assay was performed under the indicated conditions. ROCKi: Rock inhibitor Y-27632 (10 μM), SIKi: SIK inhibitors with different concentrations as indicated.
# To test the effect of Y-27632 on melanocyte cell migration, 1×10^5 cells were cultured in the upper chamber of a transwell migration apparatus. The lower chamber was supplemented either with 254 (melanocyte culture medium) without FBS (control) or 254 media plus seeding human keratinocytes (HKC) in the bottom or 254 medium with […] Y-27632 plus seeding keratinocytes in the bottom (Y-27632+HKC) or 254 medium in the presence of 1% FBS. The chambers were incubated for 24 hours at 37° C. After removal of non-migrated cells on top of the filter, cells that had migrated through the membrane were fixed in 4% paraformaldehyde washed and then stained with 0.1% crystal violet (FIG. 3A). The number of cells that had migrated through the membrane was counted in six randomly selected high-power microscopic fields and the average number of cells were shown in FIG. 3B. […]
compound,measurement,setting,value
"C[C@@H](N)[C@H]1CC[C@H](C(=O)Nc2ccncc2)CC1.Cl.Cl [Y-27632, (+)-(R)-trans-4-(1-aminoethyl)-N-(4-pyridyl)cyclohexanecarboxamide dihydrochloride]",melanocytes recovered compared with untreated cultures,"primary melanocytes; 10 μM Y-27632 for first 48 h, at 16 days",about 5 times
same,duration of treatment generating the highest yield of melanocytes,"primary melanocytes; continuous treatment with Y-27632, incubation until Day 12",4 days
same,yield of melanocytes relative to the untreated group,primary melanocytes; continuous treatment with Y-27632 for up to 12 days,increased the yield of melanocytes relative to the untreated group
same,melanocytes observed in treated versus untreated cultures,"primary melanocytes; dissociated epidermal cells, TIVA with 10 μM Y-27632 for 48 h, then TIVA alone, differences significant at 5 or more days after plating",more melanocytes in cultures treated with Y-27632 than in cultures without Y-27632
same,growth of melanocytes,"passage 3 melanocytes [1]; Y-27632 (10 μM) alone, no keratinocytes",neither Y-27632 alone nor keratinocytes medium alone could promote the growth of melanocytes
same,melanocyte proliferation,passage 3 melanocytes [1]; keratinocytes and Y-27632 (10 μM) (K+Y),could significantly increase melanocyte proliferation
same,melanocyte proliferation,passage 3 melanocytes [2]; conditioned medium from cultures of keratinocytes in TIVA+Y-27632,significantly enhanced melanocyte proliferation
same,melanocyte proliferation,passage 3 melanocytes [2]; conditioned medium from cultures of melanocytes with TIVA and Y-27632 alone,did not increase melanocyte proliferation
same,SCF mRNA level in keratinocytes,SCF (KITLG); passage 3 keratinocytes in K-SFM with or without Y-27632,can increase both mRNA and protein levels of SCF
same,expression of six melanocyte growth-enhancing factors (RT-PCR),"SCF (KITLG); passage 3 keratinocytes in TIVA+Y-27632, 0-48 h",only SCF (KITLG) expression increased significantly
same,SCF protein level in keratinocytes,SCF,can increase both mRNA and protein levels of SCF
same,melanocyte growth with conditioned medium,passage 3 melanocytes [3],enhancement of melanocyte growth
same,melanocyte migration,"melanocytes; ROCKi (10 uM Y-27632), SIKi at different concentrations, alone or combined (FIG. 3C)",could enhances melanocyte migration
same,migration of melanocytes through the membrane,"melanocytes; lower chamber: 254 medium with 10 μM Y-27632 plus keratinocytes (HKC), 24 hours",significantly induced the migration of melanocytes

# — patent US20220202827A1, “Enhancement of Melanocyte Migration Using ROCK Inhibitors” (The General Hospital Corporation, priority 2019, published 2022)
